What was measured:
[1] = molecular target: Cyclin-dependent kinase 3 (Homo sapiens) (UniProt Q00526); details: Compound concentration 1000.0 nM
[2] = tested on: Receptor-type tyrosine-protein kinase FLT3 (Homo sapiens), P36888 [D835V]; details: Compound concentration 1000.0 nM
[3] = tested on: Mast/stem cell growth factor receptor Kit (Homo sapiens), P10721 [V559D,V654A]; details: Compound concentration 1000.0 nM
[4] = molecular target: AP2-associated protein kinase 1 (Homo sapiens) (UniProt Q2M2I8); details: Compound concentration 1000.0 nM
[5] = molecular target: Serine/threonine-protein kinase PknB (Mycobacterium tuberculosis) (UniProt P9WI81); details: Compound concentration 1000.0 nM
[6] = molecular target: Uncharacterized serine/threonine-protein kinase SBK3 (Homo sapiens) (UniProt P0C264); details: Compound concentration 1000.0 nM
Sequence of Uncharacterized serine/threonine-protein kinase SBK3 (Homo sapiens) (P0C264 whole entry): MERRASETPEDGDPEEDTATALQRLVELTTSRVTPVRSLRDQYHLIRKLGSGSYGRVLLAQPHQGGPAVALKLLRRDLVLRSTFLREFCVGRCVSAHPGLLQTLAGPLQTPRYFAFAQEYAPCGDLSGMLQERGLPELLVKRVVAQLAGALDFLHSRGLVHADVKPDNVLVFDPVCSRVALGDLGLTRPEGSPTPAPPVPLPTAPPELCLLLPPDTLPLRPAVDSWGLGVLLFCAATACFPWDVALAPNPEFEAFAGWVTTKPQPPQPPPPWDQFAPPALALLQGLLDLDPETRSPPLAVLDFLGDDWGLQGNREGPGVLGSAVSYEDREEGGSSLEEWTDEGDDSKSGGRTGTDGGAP

[7] = molecular target: Protein kinase C eta type (Homo sapiens) (UniProt P24723); details: Compound concentration 1000.0 nM
[8] = molecular target: LIM domain kinase 1 (Homo sapiens) (UniProt P53667); details: Compound concentration 1000.0 nM
[9] = molecular target: 5-hydroxytryptamine receptor 7 (Homo sapiens) (UniProt P34969); details: Compound concentration 10.0 uM
Sequence of 5-hydroxytryptamine receptor 7 (Homo sapiens) (P34969 whole entry): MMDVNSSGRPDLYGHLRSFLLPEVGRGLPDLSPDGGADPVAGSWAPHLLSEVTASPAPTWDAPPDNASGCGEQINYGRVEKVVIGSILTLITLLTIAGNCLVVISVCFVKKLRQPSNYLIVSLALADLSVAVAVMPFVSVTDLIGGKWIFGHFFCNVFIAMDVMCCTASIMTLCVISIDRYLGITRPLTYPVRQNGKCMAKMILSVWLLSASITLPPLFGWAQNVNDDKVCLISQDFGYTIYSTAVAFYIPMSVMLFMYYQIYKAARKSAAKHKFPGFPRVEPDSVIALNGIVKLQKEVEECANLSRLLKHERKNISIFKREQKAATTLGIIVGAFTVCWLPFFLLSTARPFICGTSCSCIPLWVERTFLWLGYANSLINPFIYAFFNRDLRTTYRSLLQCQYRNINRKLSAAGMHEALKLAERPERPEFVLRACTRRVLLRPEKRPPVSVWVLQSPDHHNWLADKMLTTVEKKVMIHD

[10] = molecular target: Mitogen-activated protein kinase kinase kinase 10 (Homo sapiens) (UniProt Q02779); details: Compound concentration 1000.0 nM
[11] = tested on: Hepatocyte growth factor receptor (Homo sapiens), P08581 [Y1235D]; details: Compound concentration 1000.0 nM
[12] = molecular target: Rhodopsin kinase GRK1 (Homo sapiens) (UniProt Q15835); details: Compound concentration 1000.0 nM
[13] = molecular target: 5-hydroxytryptamine receptor 5A (Homo sapiens) (UniProt P47898); details: Compound concentration 10.0 uM
[14] = molecular target: Insulin receptor (Homo sapiens) (UniProt P06213); details: Compound concentration 1000.0 nM
[15] = molecular target: MAP kinase-interacting serine/threonine-protein kinase 1 (Homo sapiens) (UniProt Q9BUB5); details: Compound concentration 1000.0 nM
Sequence of MAP kinase-interacting serine/threonine-protein kinase 1 (Homo sapiens) (Q9BUB5 whole entry, looked up): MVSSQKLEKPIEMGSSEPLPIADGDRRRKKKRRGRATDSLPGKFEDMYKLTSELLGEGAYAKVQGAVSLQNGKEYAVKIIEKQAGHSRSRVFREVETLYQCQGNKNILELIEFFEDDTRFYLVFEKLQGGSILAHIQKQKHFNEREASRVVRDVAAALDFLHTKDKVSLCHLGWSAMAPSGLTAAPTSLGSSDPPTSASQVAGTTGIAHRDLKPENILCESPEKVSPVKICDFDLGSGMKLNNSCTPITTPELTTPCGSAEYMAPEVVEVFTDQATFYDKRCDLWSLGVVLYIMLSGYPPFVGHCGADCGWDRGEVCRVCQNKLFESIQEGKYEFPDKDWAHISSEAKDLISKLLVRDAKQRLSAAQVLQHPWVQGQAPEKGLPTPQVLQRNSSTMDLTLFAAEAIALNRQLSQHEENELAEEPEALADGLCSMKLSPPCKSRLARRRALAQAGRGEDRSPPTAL

[16] = tested on: Proto-oncogene tyrosine-protein kinase receptor Ret (Homo sapiens), P07949 [V804L]; details: Compound concentration 1000.0 nM
[17] = molecular target: Tyrosine-protein kinase Lyn (Homo sapiens) (UniProt P07948); details: Compound concentration 1000.0 nM
[18] = molecular target: Serine/threonine-protein kinase TAO2 (Homo sapiens) (UniProt Q9UL54); details: Compound concentration 1000.0 nM
[19] = molecular target: Mitogen-activated protein kinase kinase kinase 15 (Homo sapiens) (UniProt Q6ZN16); details: Compound concentration 1000.0 nM
[20] = molecular target: 5-hydroxytryptamine receptor 6 (Homo sapiens) (UniProt P50406); details: Compound concentration 10.0 uM
[21] = molecular target: Phosphatidylinositol 4,5-bisphosphate 3-kinase catalytic subunit delta isoform (Homo sapiens) (UniProt O00329); details: Compound concentration 1000.0 nM
[22] = molecular target: Myosin-IIIa (Homo sapiens) (UniProt Q8NEV4); details: Compound concentration 1000.0 nM
[23] = molecular target: Serine/threonine-protein kinase D1 (Homo sapiens) (UniProt Q15139); details: Compound concentration 1000.0 nM
[24] = molecular target: Serine/threonine-protein kinase PLK2 (Homo sapiens) (UniProt Q9NYY3); details: Compound concentration 1000.0 nM
[25] = tested on: Tyrosine-protein kinase ABL1 (Homo sapiens), P00519 [F317I]; details: Compound concentration 1000.0 nM
[26] = molecular target: TGF-beta receptor type-2 (Homo sapiens) (UniProt P37173); details: Compound concentration 1000.0 nM
[27] = molecular target: Tyrosine-protein kinase Srms (Homo sapiens) (UniProt Q9H3Y6); details: Compound concentration 1000.0 nM
[28] = tested on: Tyrosine-protein kinase ABL1 (Homo sapiens), P00519 [T315I]; details: Compound concentration 1000.0 nM
[29] = molecular target: Casein kinase I isoform epsilon (Homo sapiens) (UniProt P49674); details: Compound concentration 1000.0 nM
[30] = molecular target: Tyrosine-protein kinase JAK3 (Homo sapiens) (UniProt P52333); details: Compound concentration 1000.0 nM
Sequence of Tyrosine-protein kinase JAK3 (Homo sapiens) (P52333 whole entry): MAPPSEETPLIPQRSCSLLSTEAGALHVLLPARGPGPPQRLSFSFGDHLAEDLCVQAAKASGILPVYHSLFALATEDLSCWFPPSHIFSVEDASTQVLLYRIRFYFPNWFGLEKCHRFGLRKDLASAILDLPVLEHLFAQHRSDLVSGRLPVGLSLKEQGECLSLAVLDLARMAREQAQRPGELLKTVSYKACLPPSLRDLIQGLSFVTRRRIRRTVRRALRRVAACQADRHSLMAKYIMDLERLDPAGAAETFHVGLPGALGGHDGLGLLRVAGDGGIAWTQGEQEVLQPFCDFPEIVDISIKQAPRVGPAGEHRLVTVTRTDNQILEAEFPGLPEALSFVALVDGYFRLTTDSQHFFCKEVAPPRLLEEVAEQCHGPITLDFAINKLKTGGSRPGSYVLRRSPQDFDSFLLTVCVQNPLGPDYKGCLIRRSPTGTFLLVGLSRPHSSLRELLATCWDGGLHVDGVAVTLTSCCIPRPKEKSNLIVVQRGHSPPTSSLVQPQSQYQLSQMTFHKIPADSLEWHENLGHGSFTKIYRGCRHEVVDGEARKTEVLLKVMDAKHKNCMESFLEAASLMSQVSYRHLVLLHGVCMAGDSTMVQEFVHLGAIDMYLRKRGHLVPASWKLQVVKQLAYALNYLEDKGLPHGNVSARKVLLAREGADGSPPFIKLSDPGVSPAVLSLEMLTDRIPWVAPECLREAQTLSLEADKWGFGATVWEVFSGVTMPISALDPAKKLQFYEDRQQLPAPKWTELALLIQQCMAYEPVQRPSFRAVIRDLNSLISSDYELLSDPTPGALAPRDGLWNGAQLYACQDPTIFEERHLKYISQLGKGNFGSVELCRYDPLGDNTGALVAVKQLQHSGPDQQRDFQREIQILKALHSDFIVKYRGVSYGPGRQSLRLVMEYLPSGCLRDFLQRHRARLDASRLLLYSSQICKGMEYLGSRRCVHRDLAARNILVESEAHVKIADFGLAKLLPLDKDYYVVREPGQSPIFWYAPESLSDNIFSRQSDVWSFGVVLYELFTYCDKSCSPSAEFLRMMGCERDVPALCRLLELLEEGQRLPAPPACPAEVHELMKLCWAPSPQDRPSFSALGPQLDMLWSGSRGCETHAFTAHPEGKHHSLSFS

[31] = molecular target: Cyclin-dependent kinase 11A (Homo sapiens) (UniProt Q9UQ88); details: Compound concentration 1000.0 nM
[32] = molecular target: Fibroblast growth factor receptor 2 (Homo sapiens) (UniProt P21802); details: Compound concentration 1000.0 nM
[33] = tested on: ALK tyrosine kinase receptor (Homo sapiens), Q9UM73 [C1156Y]; details: Compound concentration 1000.0 nM
[34] = molecular target: NT-3 growth factor receptor (Homo sapiens) (UniProt Q16288); details: Compound concentration 1000.0 nM
[35] = molecular target: Myosin light chain kinase 2, skeletal/cardiac muscle (Homo sapiens) (UniProt Q9H1R3); details: Compound concentration 1000.0 nM
Sequence of Myosin light chain kinase 2, skeletal/cardiac muscle (Homo sapiens) (Q9H1R3 whole entry): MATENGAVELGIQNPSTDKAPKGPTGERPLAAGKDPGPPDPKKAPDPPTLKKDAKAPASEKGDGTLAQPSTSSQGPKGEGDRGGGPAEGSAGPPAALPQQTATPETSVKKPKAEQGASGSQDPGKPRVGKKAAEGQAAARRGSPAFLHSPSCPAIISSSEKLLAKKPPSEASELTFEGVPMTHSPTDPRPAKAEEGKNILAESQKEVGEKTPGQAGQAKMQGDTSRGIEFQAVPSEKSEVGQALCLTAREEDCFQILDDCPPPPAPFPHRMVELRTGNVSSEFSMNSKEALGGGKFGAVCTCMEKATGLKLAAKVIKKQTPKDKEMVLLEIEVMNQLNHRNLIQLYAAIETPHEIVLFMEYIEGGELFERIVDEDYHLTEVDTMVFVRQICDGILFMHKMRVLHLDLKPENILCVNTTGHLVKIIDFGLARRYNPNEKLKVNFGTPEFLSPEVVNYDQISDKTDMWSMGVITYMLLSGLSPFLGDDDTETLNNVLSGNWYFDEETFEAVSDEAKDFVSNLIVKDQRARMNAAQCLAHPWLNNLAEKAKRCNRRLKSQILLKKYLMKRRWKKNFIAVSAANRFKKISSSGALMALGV

[36] = molecular target: Homeodomain-interacting protein kinase 4 (Homo sapiens) (UniProt Q8NE63); details: Compound concentration 1000.0 nM
[37] = molecular target: Dual specificity testis-specific protein kinase 1 (Homo sapiens) (UniProt Q15569); details: Compound concentration 1000.0 nM
Sequence of Dual specificity testis-specific protein kinase 1 (Homo sapiens) (Q15569 whole entry, looked up): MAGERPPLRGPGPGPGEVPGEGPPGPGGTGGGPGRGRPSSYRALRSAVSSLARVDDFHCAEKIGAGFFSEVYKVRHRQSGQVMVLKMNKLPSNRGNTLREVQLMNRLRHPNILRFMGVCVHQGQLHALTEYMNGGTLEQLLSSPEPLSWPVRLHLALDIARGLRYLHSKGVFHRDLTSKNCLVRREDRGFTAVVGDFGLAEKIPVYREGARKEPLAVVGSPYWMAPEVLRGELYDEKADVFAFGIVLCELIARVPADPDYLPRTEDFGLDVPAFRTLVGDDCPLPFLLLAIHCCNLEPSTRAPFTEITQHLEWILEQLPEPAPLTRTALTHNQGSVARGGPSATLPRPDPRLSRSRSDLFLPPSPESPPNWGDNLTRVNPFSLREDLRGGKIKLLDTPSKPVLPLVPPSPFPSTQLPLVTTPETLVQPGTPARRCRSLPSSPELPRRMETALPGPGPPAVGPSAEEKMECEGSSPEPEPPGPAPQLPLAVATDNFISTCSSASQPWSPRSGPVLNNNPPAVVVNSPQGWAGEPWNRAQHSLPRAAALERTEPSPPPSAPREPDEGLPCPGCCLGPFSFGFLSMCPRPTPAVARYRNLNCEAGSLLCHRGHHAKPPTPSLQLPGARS

[38] = molecular target: Macrophage colony-stimulating factor 1 receptor (Homo sapiens) (UniProt P07333); details: Compound concentration 1000.0 nM
[39] = molecular target: Ephrin type-B receptor 3 (Homo sapiens) (UniProt P54753); details: Compound concentration 1000.0 nM
Sequence of Ephrin type-B receptor 3 (Homo sapiens) (P54753 whole entry): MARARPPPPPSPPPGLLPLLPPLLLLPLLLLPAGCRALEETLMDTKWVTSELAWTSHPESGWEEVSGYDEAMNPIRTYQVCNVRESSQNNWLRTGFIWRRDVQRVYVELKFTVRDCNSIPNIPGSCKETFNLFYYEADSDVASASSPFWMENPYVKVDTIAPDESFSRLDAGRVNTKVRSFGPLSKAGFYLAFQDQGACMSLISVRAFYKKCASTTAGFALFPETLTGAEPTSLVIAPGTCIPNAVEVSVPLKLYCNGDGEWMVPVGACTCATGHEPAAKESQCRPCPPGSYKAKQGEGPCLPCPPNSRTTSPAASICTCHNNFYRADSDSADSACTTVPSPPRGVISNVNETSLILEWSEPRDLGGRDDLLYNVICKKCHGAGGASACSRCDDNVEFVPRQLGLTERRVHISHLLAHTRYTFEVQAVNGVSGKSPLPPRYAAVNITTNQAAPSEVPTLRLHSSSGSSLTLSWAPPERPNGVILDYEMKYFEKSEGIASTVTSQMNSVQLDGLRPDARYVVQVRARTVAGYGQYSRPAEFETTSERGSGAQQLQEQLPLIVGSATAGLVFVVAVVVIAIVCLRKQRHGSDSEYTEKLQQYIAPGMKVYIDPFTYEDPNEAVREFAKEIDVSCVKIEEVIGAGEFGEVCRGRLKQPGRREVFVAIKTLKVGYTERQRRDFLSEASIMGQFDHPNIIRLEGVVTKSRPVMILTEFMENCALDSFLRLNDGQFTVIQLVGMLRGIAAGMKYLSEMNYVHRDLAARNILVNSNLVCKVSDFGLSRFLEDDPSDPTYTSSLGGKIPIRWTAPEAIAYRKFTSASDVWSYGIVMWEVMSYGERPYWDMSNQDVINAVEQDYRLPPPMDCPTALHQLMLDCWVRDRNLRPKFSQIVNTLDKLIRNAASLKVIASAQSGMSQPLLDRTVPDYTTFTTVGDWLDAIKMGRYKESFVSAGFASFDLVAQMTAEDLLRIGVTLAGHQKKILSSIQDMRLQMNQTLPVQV

[40] = molecular target: Mitogen-activated protein kinase 1 (Homo sapiens) (UniProt P28482); details: Compound concentration 1000.0 nM
Sequence of Mitogen-activated protein kinase 1 (Homo sapiens) (P28482 whole entry): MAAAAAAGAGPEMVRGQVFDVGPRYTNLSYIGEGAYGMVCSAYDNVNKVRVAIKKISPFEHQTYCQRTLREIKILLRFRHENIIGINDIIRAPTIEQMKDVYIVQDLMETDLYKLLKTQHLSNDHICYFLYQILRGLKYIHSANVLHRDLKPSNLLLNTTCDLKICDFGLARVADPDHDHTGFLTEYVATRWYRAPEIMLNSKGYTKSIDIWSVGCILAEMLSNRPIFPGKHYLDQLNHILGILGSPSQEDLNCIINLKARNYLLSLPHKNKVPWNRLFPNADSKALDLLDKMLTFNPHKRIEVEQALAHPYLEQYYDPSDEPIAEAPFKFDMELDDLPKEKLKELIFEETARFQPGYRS

[41] = molecular target: Insulin-like growth factor 1 receptor (Homo sapiens) (UniProt P08069); details: Compound concentration 1000.0 nM
[42] = molecular target: MAP/microtubule affinity-regulating kinase 3 (Homo sapiens) (UniProt P27448); details: Compound concentration 1000.0 nM
[43] = molecular target: Myotonin-protein kinase (Homo sapiens) (UniProt Q09013); details: Compound concentration 1000.0 nM
[44] = molecular target: Serine/threonine-protein kinase DCLK2 (Homo sapiens) (UniProt Q8N568); details: Compound concentration 1000.0 nM
[45] = molecular target: Serine/threonine-protein kinase tousled-like 1 (Homo sapiens) (UniProt Q9UKI8); details: Compound concentration 1000.0 nM
[46] = molecular target: Alpha-2B adrenergic receptor (Homo sapiens) (UniProt P18089); details: Compound concentration 10.0 uM

Cc1cc(-n2nc(Cc3cc(F)cc(C(F)(F)F)c3)nc2C)ccc1C(N)=O [TP-024]
inactive: residual activity [1] 100% | residual activity [2] 100% | residual activity [3] 97% | residual activity [4] 100% | residual activity [5] 78% | residual activity [6] 91% | residual activity [7] 97% | residual activity [8] 100% | inhibition [9] 21.4% | residual activity [10] 95% | residual activity [11] 90% | residual activity [12] 87% | inhibition [13] 7.99% | residual activity [14] 99% | residual activity [15] 100% | residual activity [16] 100% | residual activity [17] 100% | residual activity [18] 91% | residual activity [19] 100% | inhibition [20] 6.25% | residual activity [21] 52% | residual activity [22] 100% | residual activity [23] 92% | residual activity [24] 100% | residual activity [25] 85% | residual activity [26] 100% | residual activity [27] 98% | residual activity [28] 100% | residual activity [29] 100% | residual activity [30] 100% | residual activity [31] 100% | residual activity [32] 100% | residual activity [33] 100% | residual activity [34] 94% | residual activity [35] 91% | residual activity [36] 100% | residual activity [37] 100% | residual activity [38] 100% | residual activity [39] 100% | residual activity [40] 100% | residual activity [41] 98% | residual activity [42] 100% | residual activity [43] 100% | residual activity [44] 100% | residual activity [45] 93% | inhibition [46] 10.1%

Cc1nc(Cc2cccc(C(F)(F)F)c2)sc1-c1ccc(C(N)=O)nc1 [TP-024n]
inactive: residual activity [1] 88% | residual activity [2] 100% | residual activity [3] 83% | residual activity [4] 96% | residual activity [5] 99% | residual activity [6] 100% | residual activity [7] 83% | residual activity [8] 100% | inhibition [9] 16.4% | residual activity [10] 71% | residual activity [11] 91% | residual activity [12] 98% | inhibition [13] 3.99% | residual activity [14] 95% | residual activity [15] 100% | residual activity [16] 86% | residual activity [17] 95% | residual activity [18] 86% | residual activity [19] 100% | inhibition [20] 2.42% | residual activity [21] 100% | residual activity [22] 98% | residual activity [23] 93% | residual activity [24] 82% | residual activity [25] 83% | residual activity [26] 100% | residual activity [27] 77% | residual activity [28] 100% | residual activity [29] 100% | residual activity [30] 100% | residual activity [31] 92% | residual activity [32] 100% | residual activity [33] 68% | residual activity [34] 69% | residual activity [35] 77% | residual activity [36] 100% | residual activity [37] 88% | residual activity [38] 85% | residual activity [39] 100% | residual activity [40] 95% | residual activity [41] 100% | residual activity [42] 86% | residual activity [43] 100% | residual activity [44] 100% | residual activity [45] 100% | inhibition [46] 5.89%
